# Measured values from US12630512B2, “Agents for differentiating stem cells and treating cancer” (Minerva Biotechnologies Corporation, priority 2017, dated 2026).
# Legend:
# micro-RNA-145 = experiment: RT-PCR measurement of miR-145 in naïve state stem cells; format: cell-based, human; details: treated for 72 hours (FIG. 91A-91C)
# Experimental: FIGS. 91A-91C show graphs of RT-PCR measurement of naïve state stem cells treated for 72 hours with compounds of the invention at the indicated concentrations, wherein the gene that is measured is micro-RNA-145, which is a harbinger of stem cell differentiation.
# We used RT-PCR to measure changes in the expression of some of these super-enhancer genes, AXIN2, which is a surrogate for activated β-catenin, miR-145, MUC1 and MUC1* ligands NME7AB and NME7-X1. […] Thus, compounds of the invention, at least in part, inhibit tumor cell migration and invasiveness by inducing expression of genes that are critical for differentiation, some of which are super-enhancer target genes, and miR-145, while decreasing expression of β-catenin, MUC1 and its growth factor NME7AB. Novel compounds of the invention are powerful agents for the treatment or prevention of cancers and metastatic cancers. […] In one aspect of the invention, a biological sample from a patient is tested for the presence of MUC1*, NME7AB or NME7-X1, and upon finding that the patient's cancer is positive for MUC1*, NME7AB or NME7-X1, a compound of the invention is administered to the patient in an amount suitable to prevent or treat the cancer. In one instance, the patient sample is subjected to a test, such as PCR, to determine the amount of nucleic acid that encodes MUC1, NME7 or NME7-X1. […] In another aspect of the invention, the patient's cancer is considered to be MUC1* positive, NME7AB positive or NME7-X1 positive if expression of those genes is equal to or greater than 0.5% of EEF1A1 expression in those cells. In yet another aspect of the invention, the patient's cancer is considered to be MUC1* positive if the patient's tissue specimen is contacted with an antibody that binds to the PSMGFR peptide or the N-10 peptide and stains the tissue with a pathologist's standard score 1-4 (“+−++++”). […]
# [1] = system: human primed state stem cells; experiment: Stem cell drug screen on primed state stem cells (pluripotency, proliferation, differentiation); format: cell-based; details: primed state stem cells; 6 uM per FIGS. 46-64
# Experimental: The stem cell screening assay, was performed in both the presence and absence of the stem cell growth factors: NME7AB for growing naïve stem cells or FGF for growing primed stem cells. If the cognate growth factor was present, then the biological or small molecule would have to compete away the growth factor to get an effect. Therefore, we expected to see more of an effect when the growth factor, FGF for primed stem cells or NME7AB or NME1 dimers for naïve stem cells, was absent. The effect of the compounds on stem cells was visually determined and compounds were ranked 0-4, with 4 being the greatest effect and 0 being no observable effect. The major effect that was observed was a change from pluripotent stem cell morphology, which is a cobblestone pattern of small round cells with a large nucleus to cytoplasm ratio, to that of differentiating stem cells, which are elongated, large and flattened cells with a smaller nucleus to cytoplasm ratio. […] The compounds were added to a final concentration of 6 uM to either naïve state stem cells or primed state stem cells. In this particular case, the naïve state stem cells were maintained in a naïve state by culturing in a media containing NME7AB or NME1 dimers. However, other methods such as 2i and 5i (Silva et al., 2008, Nichols and Smith, 2009, Theunissen et al., 2014)] can be used to maintain stem cells in a more naïve state. In this case primed state stem cells were cultured in bFGF over a layer of MEFs, although it is known that any bFGF containing media will maintain stem cells in the primed state.
# Percent inhibition of cancer cell migration was performed in a wound healing assay. The percent area that the invading cancer cells occupied, in the presence of a drug candidate compared to the controls, was quantified by Image J cell software which enables cell counting from photographs. IC50's were calculated by performing migration experiments at several compound concentrations and then applying Hill's equation. Inhibition of cancer cell proliferation was quantified by automated cell counting in the presence or absence of a drug candidate. Here, the inhibition of cancer cell proliferation was scored 1 if proliferation was inhibited by 25%, 2 if inhibited by […] and 4 for the highest degree of inhibition of proliferation, and 0 for the lowest. The effect of the drug candidates on stem cell pluripotency or proliferation was scored by eye, based on cell morphology and cell density, with 0 being no change in morphology or cell number and 4 being the most profound effect, with the stem cells taking on the morphology of a differentiating cell, along with much fewer cells indicative of inhibition of proliferation. As an example, FIGS. 30A-30F show photographs of naïve stem cell, primed stem cell and fibroblast controls. FIGS. 31A-31F show the effect of compounds of the invention on naïve state stem cells, where the number of ‘+’ signs indicates the score from 0-4 of ability of compound to inhibit pluripotency, proliferation of naïve stem cells or ability to induce their differentiation. […] FIGS. 36-44 and 65-87 show photographs and IC50 graphs of the compounds of the invention, inhibiting cancer cell migration and invasion. Cancer cell migration is a hallmark of metastatic cancer.
# Stem cells whether embryonic or induced pluripotent stem (iPS) cells were cultured in a minimal, serum-free media that contained human recombinant bFGF at a concentration of 8 ng/mL. The stem cells were plated over a layer of inactivated mouse embryonic fibroblasts, aka MEFs, which secrete additional uncharacterized growth factors and cytokines.
# Human naïve state and primed stem cells were cultured in parallel for at least 5 passages to guarantee normal differentiation-free growth. The stem cells were plated in 12-well cell culture plates with 50,000 cells per well. Cells were cultured in their respective media, either bFGF media or NME7AB media for 24 hours. […]
Structure (SMILES),expression of miR-145 in naïve state stem cells (micro-RNA-145),effect on primed state stem cells [1]
C[C@@H]1Cc2c([nH]c3ccccc23)CN1C(=O)C1CCC(CN(C)C(=O)NC(C)(C)C)CC1 (stereo partly drawn) [MN1423],increased expression of miR-145,no effect
CN(C[C@H]1CC[C@H](C(=O)N2CCc3c([nH]c4ccccc34)C2C2CC2)CC1)C(=O)NC(C)(C)C (stereo partly drawn) [MN1413],increased expression of miR-145,no effect
"CN(CC1CCC(C(=O)N2CCC(c3ccncc3)CC2)CC1)C(=O)OC(C)(C)C (stereo not drawn) [MN1428, Tert-butyl methyl((4-(4-(pyridin-4-yl)piperidine-1-carbonyl)cyclohexyl)methyl)carbamate]",increased expression of miR-145,no effect
